Measurements taken from ChEMBL document CHEMBL1146814, “Amidine derived 1,3-diazabuta-1,3-dienes as potential antibacterial and antifungal agents” (2004).
Calls of active or inactive are those of the source. The rule behind the calls is not given here.

Tests used:
[1] = tested on: Aspergillus niger; assay: Antifungal activity against Aspergillus niger MTCC 404 measured through zone of inhibition; Inactive; assay type: functional, organism-based
[2] = tested on: Bacillus cereus; assay: Antibacterial activity against Bacillus cereus MTCC 1272 measured through zone of inhibition; Inactive; assay type: functional, organism-based
[3] = tested on: Bacillus subtilis; assay: Antibacterial activity against Bacillus subtilis MTCC 121 measured through zone of inhibition; Inactive; assay type: functional, organism-based
[4] = tested on: Candida albicans; assay: Antifungal activity against Candida albicans MTCC 183 measured through zone of inhibition; Inactive; assay type: functional, organism-based
[5] = tested on: Escherichia coli; assay: Antibacterial activity against Escherichia coli MTCC 42 measured through zone of inhibition; Inactive; assay type: functional, organism-based
[6] = tested on: Pseudomonas aeruginosa; assay: Antibacterial activity against Pseudomonas aeruginosa MTCC 1034. measured through zone of inhibition; Inactive; assay type: functional, organism-based
[7] = tested on: Staphylococcus aureus; assay: Antibacterial activity against Staphylococcus aureus MTCC 1430 measured through zone of inhibition; Inactive; assay type: functional, organism-based
[8] = tested on: Aspergillus niger; assay: Antifungal activity against Aspergillus niger MTCC 404 measured through zone of inhibition; 11-15 mm; assay type: functional
[9] = tested on: Bacillus cereus; assay: Antibacterial activity against Bacillus cereus MTCC 1272 measured through zone of inhibition; 16-20 mm; assay type: functional
[10] = tested on: Bacillus subtilis; assay: Antibacterial activity against Bacillus subtilis MTCC 121 measured through zone of inhibition; 16-20 mm; assay type: functional
[11] = tested on: Candida albicans; assay: Antifungal activity against Candida albicans MTCC 183 measured through zone of inhibition; 16-20 mm; assay type: functional
[12] = tested on: Escherichia coli; assay: Antibacterial activity against Escherichia coli MTCC 42 measured through zone of inhibition; 21-25 mm; assay type: functional
[13] = tested on: Pseudomonas aeruginosa; assay: Antibacterial activity against Pseudomonas aeruginosa MTCC 1034. measured through zone of inhibition; 21-25 mm; assay type: functional
[14] = tested on: Staphylococcus aureus; assay: Antibacterial activity against Staphylococcus aureus MTCC 1430 measured through zone of inhibition; 21-25 mm; assay type: functional
[15] = tested on: Aspergillus niger; assay: Antifungal activity against Aspergillus niger MTCC 404 measured through zone of inhibition; inactive; assay type: functional, organism-based
[16] = tested on: Candida albicans; assay: Antifungal activity against Candida albicans MTCC 183 measured through zone of inhibition; inactive; assay type: functional, organism-based
[17] = tested on: Pseudomonas aeruginosa; assay: Antibacterial activity against Pseudomonas aeruginosa MTCC 1034. measured through zone of inhibition; 16-20 mm; assay type: functional
[18] = tested on: Staphylococcus aureus; assay: Antibacterial activity against Staphylococcus aureus MTCC 1430 measured through zone of inhibition; 16-20 mm; assay type: functional
[19] = tested on: Bacillus subtilis; assay: Antibacterial activity against Bacillus subtilis MTCC 121 measured through zone of inhibition; 21-25 mm; assay type: functional
[20] = tested on: Bacillus cereus; assay: Antibacterial activity against Bacillus cereus MTCC 1272 measured through zone of inhibition; 11-15 mm; assay type: functional
[21] = tested on: Candida albicans; assay: Antifungal activity against Candida albicans MTCC 183 measured through zone of inhibition; 11-15 mm; assay type: functional
[22] = tested on: Bacillus cereus; assay: Antibacterial activity against Bacillus cereus MTCC 1272 measured through zone of inhibition; 21-25 mm; assay type: functional
[23] = tested on: Staphylococcus aureus; assay: Antibacterial activity against Staphylococcus aureus MTCC 1430 measured through zone of inhibition; 11-15 mm; assay type: functional

SMILES | Zone of inhibition [4] | Zone of inhibition [8] [mm] | Zone of inhibition [9] [mm] | Zone of inhibition [10] [mm] | Zone of inhibition [12] [mm] | Zone of inhibition [14] [mm] | Zone of inhibition [17] [mm] | further results
C[S+](C)[O-] | inactive |  |  |  |  |  |  | Zone of inhibition [1]: inactive; Zone of inhibition [2]: inactive; Zone of inhibition [3]: inactive; Zone of inhibition [5]: inactive; Zone of inhibition [6]: inactive; Zone of inhibition [7]: inactive
CCCCS/C(=N\C(=N\c1ccc(C)cc1)c1ccccc1)N1CCCCC1 |  | 11 | 16 | 16 | 21 | 21 |  | Zone of inhibition [11]: 16 mm; Zone of inhibition [13]: 21 mm
CS/C(=N\C(=N\c1ccccc1)c1ccccc1)N1CCCCC1 |  |  | 16 | 16 | 25 |  | 16 | Zone of inhibition [15]: inactive; Zone of inhibition [16]: inactive; Zone of inhibition [18]: 16 mm
CS/C(=N\C(=N\c1ccc(C)cc1)c1ccccc1)N1CCCCC1 | inactive |  | 16 | 16 | 21 | 21 | 16 | Zone of inhibition [1]: inactive
O=C(O)c1cn(C2CC2)c2cc(N3CCNCC3)c(F)cc2c1=O [CIPROFLOXACIN] |  |  | 16 |  | 21 | 21 | 16 | Zone of inhibition [19]: 21 mm
CS/C(=N\C(=N\c1ccc(Cl)cc1)c1ccccc1)N1CCCCC1 |  | 11 |  | 16 | 21 |  |  | Zone of inhibition [20]: 11 mm; Zone of inhibition [21]: 11 mm; Zone of inhibition [13]: 21 mm; Zone of inhibition [18]: 16 mm
CCS/C(=N\C(=N\c1ccccc1)c1ccccc1)N1CCCCC1 |  |  |  | 16 | 21 | 21 | 16 | Zone of inhibition [15]: inactive; Zone of inhibition [22]: 21 mm; Zone of inhibition [21]: 11 mm
CCS/C(=N\C(=N\c1ccc(C)cc1)c1ccccc1)N1CCCCC1 | inactive | 11 | 16 |  | 21 |  | 16 | Zone of inhibition [19]: 21 mm; Zone of inhibition [23]: 11 mm
